The nature of data set [1]: Drug level in Sprague-Dawley rat CSF at 60 mg/kg, po measured at 3 hrs post dose. Also noted: dose 60 mg/kg, route oral. Particulars: read-out: Drug uptake. The class given is ADME, organism-based, Cerebrospinal fluid.
Data set [2] concerns Rattus norvegicus. Description: Reduction in amyloid beta(1 to 40) in Sprague-Dawley rat CSF at 60 mg/kg, po measured at 5 hrs post dose. The format is functional. Also noted: scale not given: the % may be the effect or the level left.
Data set [3] deals with T1, Beta-secretase 1 (Homo sapiens, UniProt P56817). Kind of data set: Inhibition of purified recombinant human BACE1 expressed in CHO cells assessed as uncleaved biotinylated sAPP after 2 hrs by HTRF assay. A general note: TR-FRET usually uses a lanthanide donor and a delayed reading to cut background.
In data set [4] the test system is Brain. Kind of data set: Free drug level in Sprague-Dawley rat brain at 60 mg/kg, po measured at 5 hrs post dose. Particulars: in vivo. The class given is ADME, organism-based. Set-up: dose 60 mg/kg, route oral.
The subject of data set [5] is Rattus norvegicus. Description: Reduction in amyloid beta(1 to 40) in Sprague-Dawley rat CSF at 60 mg/kg, po measured at 3 hrs post dose. Also noted: scale not given: the % may be the effect or the level left. The class given is functional.
Data set [6] in a line: Fraction unbound in Sprague-Dawley rat brain. The format is ADME, tissue-based.
Data set [7] in a line: Drug level in Sprague-Dawley rat CSF at 60 mg/kg, po measured at 5 hrs post dose. The class given is ADME, organism-based, Cerebrospinal fluid. Also noted: dose 60 mg/kg, route oral. Particulars: read-out: Drug uptake.
Data set [8] is described as follows: Ratio of free drug level in brain of Sprague-Dawley rat at 60 mg/kg, po measured at 5 hrs post dose to IC50 for BACE1 in HEK293 cells expressing swedish double mutant APP. The note with it: in vivo. The class given is ADME, organism-based. Also noted: dose 60 mg/kg, route oral.
Data set [9] is described as follows: Ratio of free drug level in brain to plasma of Sprague-Dawley rat at 60 mg/kg, po measured at 5 hrs post dose. The class given is ADME, organism-based. Also noted: dose 60 mg/kg, route oral. The note with it: brain and plasma, read-out: BPR.
For data set [10], the system named is Brain. Kind of data set: Free drug level in Sprague-Dawley rat brain at 60 mg/kg, po measured at 3 hrs post dose. The format is ADME, organism-based. Also noted: dose 60 mg/kg, route oral. Particulars: in vivo.
The subject of data set [11] is LLC-PK1. Description: Efflux ratio of permeability from basolateral to apical side to apical to basolateral side in pig LLC-PK1 cells transfected with human MDR1 at 1 uM. The format is ADME, cell-based, Sus scrofa. The note with it: llc-pk1, 1 µM, 1 µM.
Data set [12] is described as follows: Solubility of the compound at pH 7.2. The format is physicochemical. Particulars: buffer.
Data set [13] relates to Plasma. Kind of data set: Free plasma concentration in Sprague-Dawley rat at 60 mg/kg, po measured at 3 hrs post dose. The format is ADME, organism-based. Set-up: dose 60 mg/kg, route oral. The note with it: in vivo.
Data set [14] in a line: Ratio of free drug level in brain of Sprague-Dawley rat at 60 mg/kg, po measured at 3 hrs post dose to IC50 for BACE1 in HEK293 cells expressing swedish double mutant APP. The class given is ADME, organism-based. Set-up: dose 60 mg/kg, route oral. The note with it: in vivo.
Data set [15] has as its system LLC-PK1. Description: Apparent permeability from apical to basolateral side in pig LLC-PK1 cells transfected with human MDR1. The class given is ADME, cell-based, Sus scrofa. Particulars: llc-pk1.
Data set [16] can be described thus: Ratio of free drug level in brain to plasma of Sprague-Dawley rat at 60 mg/kg, po measured at 3 hrs post dose. The format is ADME, organism-based. Also noted: dose 60 mg/kg, route oral. Particulars: brain and plasma, read-out: BPR.
The subject of data set [17] is Plasma. Kind of data set: Free plasma concentration in Sprague-Dawley rat at 60 mg/kg, po measured at 5 hrs post dose. The class given is ADME, organism-based. The note with it: in vivo. Also noted: dose 60 mg/kg, route oral.
Data set [18] has as its target T1, Beta-secretase 1. Description: Inhibition of BACE1 in HEK293 cells expressing swedish double mutant APP assessed as amyloid beta (1 to 40) peptide level after 7 hrs by HTRF assay. The format is cell-based.

Converted amounts (≈) assume the structure as drawn.

T1 sequence (P56817 whole entry): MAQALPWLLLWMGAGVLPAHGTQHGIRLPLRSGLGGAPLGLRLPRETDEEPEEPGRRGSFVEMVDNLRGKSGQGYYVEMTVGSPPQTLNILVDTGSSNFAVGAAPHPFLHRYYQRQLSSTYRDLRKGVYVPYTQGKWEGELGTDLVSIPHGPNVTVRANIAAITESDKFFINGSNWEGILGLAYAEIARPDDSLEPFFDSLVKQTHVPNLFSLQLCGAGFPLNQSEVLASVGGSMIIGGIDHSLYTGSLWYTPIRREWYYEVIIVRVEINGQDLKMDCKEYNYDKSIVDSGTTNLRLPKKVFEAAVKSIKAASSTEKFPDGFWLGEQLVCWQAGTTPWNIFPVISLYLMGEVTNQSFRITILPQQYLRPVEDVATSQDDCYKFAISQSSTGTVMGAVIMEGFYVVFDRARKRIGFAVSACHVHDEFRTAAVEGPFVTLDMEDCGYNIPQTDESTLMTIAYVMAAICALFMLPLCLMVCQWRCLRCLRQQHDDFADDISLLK

As for `C[C@]12CCCO[C@@H]1[C@]1(COC(N)=N1)c1cc(-c3cccc(C#N)c3)ccc1O2`, in data set [1], the concentration at 3 h was 0.15 µM. The results for the Activity in the data set with Rattus norvegicus [2] and with Rattus norvegicus [5] were 69% and 63%, respectively. Besides, the results for the IC50 at Beta-secretase 1 [3] and at Beta-secretase 1 [18] were 0.045 µM and 0.039 µM, respectively. Also, the “Drug uptake(free)” value is 80 nM in the data set with Brain [4] and 88 nM in the data set with Brain [10]. The same compound yielded a fraction unbound in data set [6] of 0.014. In addition, the concentration at 5 h in [7] came out at 0.23 µM. Also, the Ratio in data set [8] stood at 2.1; with LLC-PK1 [11], 3.4; in data set [14] it was 2.3. For the same compound, in data set [9], the Kp uu at 5 h was found to be 0.32. This compound also gave a solubility in [12] of 0.057 mg/mL (≈ 152 µM). For the same compound, the “Cp(f)” value in the data set on Plasma [13] came out at 0.27 µM; in the data set on Plasma [17], 0.25 µM. Besides, the Papp with LLC-PK1 [15] was 190 nm/s. Further, in [16], the Kp uu at 3 h worked out at 0.33.

The term IC50 denotes the concentration at which inhibition is half-maximal. As a reminder, the fraction unbound is the share of the substance not bound to proteins or other matrix. In general, solubility refers to the concentration that dissolves in the medium under given conditions. For orientation: Papp means the rate of passage across a membrane or cell layer, normalised by area and donor concentration.

The record behind these values is ChEMBL document CHEMBL3352087 (J Med Chem, 2014).
